Values quoted from earlier work as cited in patent US20250295562A1, “Formulation for treatment of melasma, hyperpigmentation, and dark spots” (priority 2024, published 2025).

Experiments:
[1] = clinical

Row | Structure (SMILES) | anticollagenase inhibitory activity (collagenase) | bactericidal activity (bacteria) | anti-acne effect [1]
1 | CC(C)=CCC1=C(O)C(C(=O)CC(C)C)=C(O)C(CC=C(C)C)(CC=C(C)C)C1=O [lupulone] | moderate to strong | exhibited bactericidal activity | 
2 | COc1cc(O)c(CC=C(C)C)c(O)c1C(=O)/C=C/c1ccc(O)cc1 [xanthohumol] | moderate to strong | exhibited bactericidal activity | 
3 | CCCCC/C=C\C/C=C\CCCCCCCC(=O)OCC [Ethyl Linoleate, Ethyl linoleate] |  |  | effective anti-acne agent
